# Read-outs that look alike come from different tables or passages of the source.
# Tests used:
# [1] = system: P388/ADM, adriamycin resistant subline; test: Adriamycin cytotoxicity (MTT), P-glycoprotein assay
# Description: (§1) The inhibitory effect of milbemycin β1 against the mammalian P-glycoprotein multi-drug resistant pump was determined following the procedure described by Tsuruo et al (Cancer Res., 1981. 41:1967-1972) with slight modification. The cytotoxicity of antitumor agent, adriamycin, against adriamycin sensitive P388 cell line (mouse leukemia) and its adriamycin resistant subline line (P388/ADM) was measured in the presence of various concentrations of milbemycin β1. […] The assay is performed in serum-free media containing 20 μM of 2-mercaptoethanol. Chemosensitivity to adriamycin was determined […] based on the reduction of MTT (3-[4,5-dimethylthiazol-2-yl]-2,5-diphenyltetrazolium bromide) into blue formazan.
# [2] = system: P388 cell line (mouse leukemia), adriamycin sensitive; test: as above
# Description: as §1
# [3] = system: mammalian P-glycoprotein multi-drug resistant pump; format: cell-based, mouse; details: no inhibitor (None)
# Description: as §1
# Aspergillus fumigatus = test: FEPI MICs in combination with 1/4 the azole's MIC (Table 12); format: cell-based; set-up: FEPI MIC (alone): unit not given here; details: for FEPI MIC with itraconazole, 60% Inh / FEPI MIC with itraconazole, 80% Inh: itraconazole 0.063 μg/ml (1/4 MIC); for FEPI MIC with ketoconazole, 60% Inh / FEPI MIC with ketoconazole, 80% Inh: ketoconazole 4 μg/ml (1/4 MIC); for FEPI MIC (alone): no azole, 35° C., CM Broth
# Description: The combinations were tested against a series of Candida strain with known expression of efflux pumps or with complete deletion of all known pumps and Aspergillus fumigatus. Results are reported as minimum inhibitory concentration (MIC) of […] in the presence or absence of […]. A total of 27 distinct milbemycins were studied.
# [4] = system: YEM 24 C. albicans ΔCDR1, ΔCDR2; test: microbe, parasite or virus in culture; format: cell-based; details: YEM 24, 24 hrs, 80% inhibition; for MIC of compound in the presence of fluconazole (+): 1/8 × MIC of fluconazole
# [5] = system: YEM 13 C. albicans BEN up; test: microbe, parasite or virus in culture; format: cell-based; details: YEM 13, 24 hrs, 80% inhibition; for MIC of compound in the presence of fluconazole (+): 1/8 × MIC of fluconazole
# [6] = system: pCgBEN (MF) efflux pump in S. cerevisiae YEM-40; format: cell-based, C. glabrata
# [7] = target: pCDR2 (ABC) efflux pump in S. cerevisiae YEM-37 (Candida albicans, UniProt P78595); test: cell-based; format: cell-based, C. albicans; details: YEM-37 pCDR2, fluconazole fixed at FLUhalf 1
# Chain of pCDR2 (ABC) efflux pump in S. cerevisiae YEM-37 (P78595 whole entry): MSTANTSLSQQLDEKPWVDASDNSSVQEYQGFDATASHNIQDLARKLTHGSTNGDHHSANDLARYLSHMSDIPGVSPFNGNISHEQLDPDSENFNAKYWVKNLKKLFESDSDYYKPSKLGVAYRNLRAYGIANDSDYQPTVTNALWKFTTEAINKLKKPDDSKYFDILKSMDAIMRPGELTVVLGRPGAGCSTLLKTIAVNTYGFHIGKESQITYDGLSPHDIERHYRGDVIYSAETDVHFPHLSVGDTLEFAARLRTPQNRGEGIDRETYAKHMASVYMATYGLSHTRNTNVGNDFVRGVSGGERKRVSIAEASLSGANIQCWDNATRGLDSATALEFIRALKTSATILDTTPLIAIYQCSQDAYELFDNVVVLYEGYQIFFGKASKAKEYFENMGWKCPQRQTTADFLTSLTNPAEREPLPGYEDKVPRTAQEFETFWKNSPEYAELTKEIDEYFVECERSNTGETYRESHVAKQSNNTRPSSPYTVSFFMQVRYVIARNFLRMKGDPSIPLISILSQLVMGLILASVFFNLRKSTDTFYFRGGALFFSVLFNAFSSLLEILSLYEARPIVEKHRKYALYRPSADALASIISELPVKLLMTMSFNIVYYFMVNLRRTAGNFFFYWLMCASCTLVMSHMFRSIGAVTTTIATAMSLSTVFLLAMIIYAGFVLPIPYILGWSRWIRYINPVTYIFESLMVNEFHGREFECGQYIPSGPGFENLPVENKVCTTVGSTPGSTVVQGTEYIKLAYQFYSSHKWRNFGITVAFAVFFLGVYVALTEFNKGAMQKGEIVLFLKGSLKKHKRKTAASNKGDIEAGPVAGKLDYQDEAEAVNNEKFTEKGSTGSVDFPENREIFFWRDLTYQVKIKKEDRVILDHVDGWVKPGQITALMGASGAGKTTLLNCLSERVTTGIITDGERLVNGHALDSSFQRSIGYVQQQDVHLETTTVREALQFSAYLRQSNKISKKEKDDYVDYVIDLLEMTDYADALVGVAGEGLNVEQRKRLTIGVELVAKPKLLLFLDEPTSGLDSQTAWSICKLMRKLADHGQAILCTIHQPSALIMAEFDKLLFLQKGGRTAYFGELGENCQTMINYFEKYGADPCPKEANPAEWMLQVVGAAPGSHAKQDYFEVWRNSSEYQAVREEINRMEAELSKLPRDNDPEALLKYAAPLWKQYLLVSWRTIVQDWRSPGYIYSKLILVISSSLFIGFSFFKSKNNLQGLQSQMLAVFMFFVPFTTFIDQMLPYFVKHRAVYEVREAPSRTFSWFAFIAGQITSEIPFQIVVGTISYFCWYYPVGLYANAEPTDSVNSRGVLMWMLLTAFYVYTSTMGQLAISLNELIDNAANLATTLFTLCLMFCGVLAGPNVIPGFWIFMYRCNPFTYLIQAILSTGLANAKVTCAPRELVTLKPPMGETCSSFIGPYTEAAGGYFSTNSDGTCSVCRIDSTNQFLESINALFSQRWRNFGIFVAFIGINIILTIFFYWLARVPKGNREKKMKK
# YEM 53 C. krusei = test: FEPI MIC with/without 1/8 fluconazole MIC at 24 hrs (Table 11); format: cell-based
# YEM 51 C. glabrata wt = test: as above; format: cell-based
# [8] = target: pFLU (MF) efflux pump in S. cerevisiae YEM-38 (Candida albicans, UniProt G1UB37); test: cell-based; format: cell-based, C. albicans; details: YEM-38 pFLU, fluconazole fixed at FLUhalf 2
# Chain of pFLU (MF) efflux pump in S. cerevisiae YEM-38 (G1UB37 whole entry): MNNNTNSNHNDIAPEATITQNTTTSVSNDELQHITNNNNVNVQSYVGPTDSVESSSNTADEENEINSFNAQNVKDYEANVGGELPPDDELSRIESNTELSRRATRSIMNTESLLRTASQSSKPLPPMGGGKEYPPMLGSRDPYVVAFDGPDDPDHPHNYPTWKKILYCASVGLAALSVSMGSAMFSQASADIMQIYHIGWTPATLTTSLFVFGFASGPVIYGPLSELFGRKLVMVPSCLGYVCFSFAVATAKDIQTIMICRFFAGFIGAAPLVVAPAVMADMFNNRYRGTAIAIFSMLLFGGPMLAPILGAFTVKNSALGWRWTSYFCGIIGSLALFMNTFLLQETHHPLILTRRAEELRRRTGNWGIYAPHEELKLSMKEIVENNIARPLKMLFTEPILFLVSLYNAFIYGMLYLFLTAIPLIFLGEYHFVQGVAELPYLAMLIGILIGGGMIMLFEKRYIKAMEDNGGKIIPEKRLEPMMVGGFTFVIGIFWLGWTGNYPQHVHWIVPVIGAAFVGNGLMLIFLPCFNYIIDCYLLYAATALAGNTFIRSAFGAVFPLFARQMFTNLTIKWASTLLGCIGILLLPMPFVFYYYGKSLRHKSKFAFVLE
# [9] = system: YEM 15 C. albicans, CDR1CDR2 up; test: microbe, parasite or virus in culture; format: cell-based; details: YEM 15, 24 hrs, 80% inhibition; for MIC of compound in the presence of fluconazole (+): 1/8 × MIC of fluconazole
# [10] = system: YEM 17 C. glabrata, CgCDR up; format: cell-based; details: 24 hrs, 80% inhibition; for MIC of compound in the presence of fluconazole (+): 1/8 × MIC of fluconazole
# [11] = target: pCDRI (ABC) efflux pump in S. cerevisiae YEM-1 (Candida albicans, UniProt P43071); test: cell-based; format: cell-based, C. albicans; details: YEM-1 pCDRI, fluconazole fixed at FLUhalf 5.6
# YEM 30 C. albicans wt = test: FEPI MIC with/without 1/8 fluconazole MIC at 24 hrs (Table 11); format: cell-based
# [12] = target: pCgCDR (ABC) efflux pump in S. cerevisiae YEM-39 (Candida glabrata, UniProt Q6FK23); test: cell-based; format: cell-based, C. glabrata; details: YEM-39 pCgCDR, fluconazole fixed at FLUhalf 4
# Chain of pCgCDR (ABC) efflux pump in S. cerevisiae YEM-39 (Q6FK23 whole entry): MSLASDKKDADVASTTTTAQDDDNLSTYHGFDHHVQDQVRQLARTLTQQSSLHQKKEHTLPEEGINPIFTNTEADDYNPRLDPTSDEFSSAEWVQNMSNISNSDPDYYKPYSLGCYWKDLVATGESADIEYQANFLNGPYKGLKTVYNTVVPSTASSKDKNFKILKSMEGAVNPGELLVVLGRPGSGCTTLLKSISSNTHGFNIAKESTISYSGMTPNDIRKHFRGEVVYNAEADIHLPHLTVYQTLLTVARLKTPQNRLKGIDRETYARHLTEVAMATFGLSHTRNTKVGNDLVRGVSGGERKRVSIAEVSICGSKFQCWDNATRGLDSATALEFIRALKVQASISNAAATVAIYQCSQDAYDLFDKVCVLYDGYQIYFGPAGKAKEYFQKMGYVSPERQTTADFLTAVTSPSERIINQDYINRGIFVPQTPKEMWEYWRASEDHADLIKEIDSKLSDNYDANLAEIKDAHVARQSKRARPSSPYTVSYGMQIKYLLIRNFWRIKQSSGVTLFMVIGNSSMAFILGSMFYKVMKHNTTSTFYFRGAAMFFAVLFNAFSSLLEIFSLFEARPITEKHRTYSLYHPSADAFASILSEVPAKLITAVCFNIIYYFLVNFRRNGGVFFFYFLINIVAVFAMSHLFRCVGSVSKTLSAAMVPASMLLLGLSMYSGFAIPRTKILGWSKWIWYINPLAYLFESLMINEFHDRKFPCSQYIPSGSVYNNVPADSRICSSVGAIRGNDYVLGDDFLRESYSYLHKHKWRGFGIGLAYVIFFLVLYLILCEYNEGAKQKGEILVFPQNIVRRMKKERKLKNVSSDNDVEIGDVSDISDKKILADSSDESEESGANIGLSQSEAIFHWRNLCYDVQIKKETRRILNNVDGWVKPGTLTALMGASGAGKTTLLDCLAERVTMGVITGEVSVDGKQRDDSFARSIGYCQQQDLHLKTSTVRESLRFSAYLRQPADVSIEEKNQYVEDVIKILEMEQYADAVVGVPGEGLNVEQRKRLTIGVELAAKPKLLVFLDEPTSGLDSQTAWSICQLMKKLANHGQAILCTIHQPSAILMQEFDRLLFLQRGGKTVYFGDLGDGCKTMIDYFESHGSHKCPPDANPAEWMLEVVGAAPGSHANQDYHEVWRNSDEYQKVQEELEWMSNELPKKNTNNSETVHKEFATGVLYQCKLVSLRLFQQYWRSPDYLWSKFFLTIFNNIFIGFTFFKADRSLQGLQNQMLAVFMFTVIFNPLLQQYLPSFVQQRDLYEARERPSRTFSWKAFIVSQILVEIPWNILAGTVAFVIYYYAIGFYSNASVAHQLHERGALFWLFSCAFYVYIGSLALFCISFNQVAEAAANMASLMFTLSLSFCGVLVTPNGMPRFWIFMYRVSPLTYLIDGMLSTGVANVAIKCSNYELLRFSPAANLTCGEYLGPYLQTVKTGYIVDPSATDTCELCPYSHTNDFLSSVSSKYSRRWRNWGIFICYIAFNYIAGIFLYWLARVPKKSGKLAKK
# [13] = system: YEM 27 C. albicans ΔCDR1ΔCDR2 ΔBENΔFLU1; test: microbe, parasite or virus in culture; format: cell-based; details: YEM 27, 24 hrs, 80% inhibition; for MIC of compound in the presence of fluconazole (+): 1/8 × MIC of fluconazole
# [14] = target: pBEN (MF) efflux pump in S. cerevisiae YEM-2 (Candida albicans, UniProt P28873); test: cell-based; format: cell-based, C. albicans; details: YEM-2 pBEN, fluconazole fixed at FLUhalf 5.6
# Chain of pBEN (MF) efflux pump in S. cerevisiae YEM-2 (P28873 whole entry): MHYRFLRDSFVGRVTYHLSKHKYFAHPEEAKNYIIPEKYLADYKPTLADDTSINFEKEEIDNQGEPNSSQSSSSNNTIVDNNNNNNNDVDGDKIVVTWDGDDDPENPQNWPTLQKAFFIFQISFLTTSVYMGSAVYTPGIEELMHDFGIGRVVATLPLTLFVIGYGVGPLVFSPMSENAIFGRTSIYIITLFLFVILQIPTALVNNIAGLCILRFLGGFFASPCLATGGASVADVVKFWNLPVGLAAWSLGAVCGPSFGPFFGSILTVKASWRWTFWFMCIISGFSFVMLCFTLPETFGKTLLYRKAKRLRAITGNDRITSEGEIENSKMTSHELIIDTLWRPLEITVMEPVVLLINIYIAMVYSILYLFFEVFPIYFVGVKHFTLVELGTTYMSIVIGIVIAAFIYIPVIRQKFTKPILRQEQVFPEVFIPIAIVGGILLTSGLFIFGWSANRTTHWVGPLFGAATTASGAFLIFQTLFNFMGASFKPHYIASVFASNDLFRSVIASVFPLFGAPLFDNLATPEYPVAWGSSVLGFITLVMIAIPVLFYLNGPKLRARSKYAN
# [15] = fluconazole 32 μg/ml (1/4 MIC), 60% inhibition
# [16] = fluconazole 32 μg/ml (1/4 MIC), 80% inhibition
# [17] = YEM 53, 1/8 × MIC of fluconazole, 24 hrs, 80% inhibition
# [18] = YEM 51, 1/8 × MIC of fluconazole, 24 hrs, 80% inhibition
# [19] = YEM 30, 1/8 × MIC of fluconazole, 24 hrs, 80% inhibition
# [20] = read-out: FEPIhalf (concentration needed to reduce activity of efflux pump by 50%)
Compound,"FEPI MIC with fluconazole, 60% Inh (Aspergillus fumigatus; [15])","FEPI MIC with fluconazole, 80% Inh (Aspergillus fumigatus; [16])","FEPI MIC with itraconazole, 60% Inh (Aspergillus fumigatus; 60% inhibition)","FEPI MIC with itraconazole, 80% Inh (Aspergillus fumigatus; 80% inhibition)","FEPI MIC with ketoconazole, 60% Inh (Aspergillus fumigatus; 60% inhibition)","FEPI MIC with ketoconazole, 80% Inh (Aspergillus fumigatus; 80% inhibition)",FEPI MIC (alone) (Aspergillus fumigatus; 80% inhibition),MIC of compound in the presence of fluconazole (+) [4] [µg/mL],MIC of compound in the absence of fluconazole (−) [4] [µg/mL],MIC of compound in the presence of fluconazole (+) [5] [µg/mL],MIC of compound in the absence of fluconazole (−) [5] [µg/mL],"MIC of compound in the absence of fluconazole (−) (YEM 53 C. krusei; YEM 53, 24 hrs, 80% inhibition) [µg/mL]","MIC of compound in the absence of fluconazole (−) (YEM 51 C. glabrata wt; YEM 51, 24 hrs, 80% inhibition) [µg/mL]",MIC of compound in the presence of fluconazole (+) [9] [µg/mL],MIC of compound in the absence of fluconazole (−) [9] [µg/mL],MIC of compound in the presence of fluconazole (+) [10] [µg/mL],MIC of compound in the absence of fluconazole (−) [10] [µg/mL],"MIC of compound in the absence of fluconazole (−) (YEM 30 C. albicans wt; YEM 30, 24 hrs, 80% inhibition) [µg/mL]",MIC of compound in the presence of fluconazole (+) [13] [µg/mL],MIC of compound in the absence of fluconazole (−) [13] [µg/mL],also measured
"COc1cccc2c1C(=O)c1c(O)c3c(c(O)c1C2=O)C[C@@](O)(C(=O)CO)C[C@@H]3O[C@H]1C[C@H](N)[C@H](O)[C@H](C)O1 [Adriamycin, adriamycin, reference compound]",,,,,,,,,,,,,,,,,,,,,"Adriamycin TC50, P388/ADM [1]: 2.954 µg/mL; Adriamycin TC50, P388 [2]: 0.009 µg/mL; Ratio [P388/A]/[P388] [3]: 337"
"CCCCC(C)C(=O)OC1C(C)C(C)OC2(CC3CC(C/C=C(\C)CC(C)/C=C/C=C4\COC5C(O)C(C)=CC(C(=O)O3)C45O)O2)C1O (stereo not drawn) [Compound 8, Milbemycin α5]",1,>64,1,8,≦0.063,≦0.063,>64,> 64,> 64,> 64,> 64,> 64,> 64,0.125,> 64,2,> 64,> 64,> 64,> 64,FEPIhalf (concentration needed to reduce activity of efflux pump by 50%) [6]: >64; FEPIhalf (concentration needed to reduce activity of efflux pump by 50%) [7]: 2; MIC of compound in the presence of fluconazole (+) (YEM 53 C. krusei; [17]): 32 µg/mL; MIC of compound in the presence of fluconazole (+) (YEM 51 C. glabrata wt; [18]): 8 µg/mL; FEPIhalf (concentration needed to reduce activity of efflux pump by 50%) [8]: >64; FEPIhalf (concentration needed to reduce activity of efflux pump by 50%) [11]: 0.5; MIC of compound in the presence of fluconazole (+) (YEM 30 C. albicans wt; [19]): ≦0.03; FEPIhalf (concentration needed to reduce activity of efflux pump by 50%) [12]: 8; FEPIhalf (concentration needed to reduce activity of efflux pump by 50%) [14]: 16
"CO[C@@H]1C(C)=C[C@H]2C(=O)O[C@H]3C[C@@H](C/C=C(\C)C[C@@H](C)/C=C/C=C4\CO[C@H]1[C@@]42O)O[C@]1(C3)C[C@H](O)[C@H](C)[C@@H](/C(C)=C/C(C)C)O1 [Compound 16, LL-F2849λ (nemedectinλ)]",,,1,>64,0.125,0.125,>64,> 64,> 64,64,> 64,> 64,> 64,0.125,> 64,32,> 64,> 64,> 64,> 64,"FEPI MIC with fluconazole, 60% Inh (Aspergillus fumigatus): >64; FEPI MIC with fluconazole, 80% Inh (Aspergillus fumigatus): >64; FEPIhalf (concentration needed to reduce activity of efflux pump by 50%) ([6]; YEM-40 pCgBEN, fluconazole fixed at FLUhalf 2.8): >64; IC50 [7, 20]: 0.399 µM; MIC of compound in the presence of fluconazole (+) (YEM 53 C. krusei): > 64 µg/mL; MIC of compound in the presence of fluconazole (+) (YEM 51 C. glabrata wt): 2 µg/mL; IC50 [8, 20]: > 102 µM; IC50 [11, 20]: 1.6 µM; MIC of compound in the presence of fluconazole (+) (YEM 30 C. albicans wt): ≦0.03; IC50 [12, 20]: 102 µM; IC50 [14, 20]: > 102 µM"
LL-F2849α oxime [Compound 18],8,>64,>64,>64,0.125,0.125,>64,> 64,> 64,> 64,> 64,> 64,> 64,> 64,> 64,> 64,> 64,> 64,> 64,> 64,FEPIhalf (concentration needed to reduce activity of efflux pump by 50%) [6]: >64; FEPIhalf (concentration needed to reduce activity of efflux pump by 50%) [7]: >64; MIC of compound in the presence of fluconazole (+) (YEM 53 C. krusei; [17]): > 64 µg/mL; MIC of compound in the presence of fluconazole (+) (YEM 51 C. glabrata wt; [18]): > 64 µg/mL; FEPIhalf (concentration needed to reduce activity of efflux pump by 50%) [8]: >64; FEPIhalf (concentration needed to reduce activity of efflux pump by 50%) [11]: >64; MIC of compound in the presence of fluconazole (+) (YEM 30 C. albicans wt; [19]): ≦0.03; FEPIhalf (concentration needed to reduce activity of efflux pump by 50%) [12]: >64; FEPIhalf (concentration needed to reduce activity of efflux pump by 50%) [14]: >64

# — patent publication US6495591B1, “Fungal efflux pump inhibitors” (Essential Therapeutics, Inc., priority 1997, dated 2002)
